Laboratory results from ChEMBL document CHEMBL3351804, “Development of 2-aryl substituted quinazolin-4(3H)-one, pyrido[4,3-d]pyrimidin-4(3H)-one and pyrido[2,3-d]pyrimidin-4(3H)-one derivatives as microsomal prostaglandin E(2) synthase-1 inhibitors” (Bioorg Med Chem Lett, 2014).

Key:
[1] = molecular target: T1, Prostaglandin E synthase 3 (Homo sapiens) (UniProt Q15185); experiment: Inhibition of recombinant cPGES (unknown origin) at 10 uM
T1 sequence (whole entry): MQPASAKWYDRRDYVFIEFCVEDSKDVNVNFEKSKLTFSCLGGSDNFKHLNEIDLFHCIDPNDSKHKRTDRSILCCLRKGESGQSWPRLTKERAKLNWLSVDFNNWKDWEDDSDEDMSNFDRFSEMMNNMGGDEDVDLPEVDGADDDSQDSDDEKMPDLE

Prostaglandin E synthase [2] = molecular target: T2, Prostaglandin E synthase (Homo sapiens, UniProt O14684); experiment: Inhibition of mPGES-1 in human whole blood assessed as inhibition of LPS-induced PGE2 production after overnight incubation
T2 sequence (O14684 whole entry): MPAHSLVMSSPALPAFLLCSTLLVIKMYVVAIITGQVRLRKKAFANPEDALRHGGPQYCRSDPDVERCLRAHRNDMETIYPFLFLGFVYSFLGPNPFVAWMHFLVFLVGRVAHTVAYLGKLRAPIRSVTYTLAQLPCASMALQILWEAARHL

[3] = Stability in guinea pig liver microsomes assessed as compound remaining after 60 mins; assay type: ADME, Cavia porcellus; conditions: read-out: Stability
[4] = Stability in rat liver microsomes assessed as compound remaining after 60 mins; assay type: ADME; conditions: read-out: Stability
Prostaglandin E synthase [5] = molecular target: T3, Prostaglandin E synthase (Canis lupus familiaris, UniProt A0SYQ0); experiment: Inhibition of mPGES-1 in dog whole blood assessed as inhibition of LPS-induced PGE2 production after overnight incubation
T3 sequence (A0SYQ0 whole entry): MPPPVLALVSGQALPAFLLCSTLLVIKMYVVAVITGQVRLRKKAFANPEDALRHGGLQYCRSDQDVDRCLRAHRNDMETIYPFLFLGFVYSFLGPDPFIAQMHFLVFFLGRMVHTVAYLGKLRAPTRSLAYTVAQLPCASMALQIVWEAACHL

[6] = Cmax in Sprague-Dawley rat at 10 mg/kg, po; assay type: ADME, organism-based; parameters: dose 10 mg/kg, route oral; conditions: in vivo
[7] = molecular target: Prostaglandin F2-alpha receptor (Homo sapiens) (UniProt P43088); experiment: Induction of recombinant PGF2-alpha (unknown origin) at 10 uM
Chain of Prostaglandin F2-alpha receptor (Homo sapiens) (P43088 whole entry): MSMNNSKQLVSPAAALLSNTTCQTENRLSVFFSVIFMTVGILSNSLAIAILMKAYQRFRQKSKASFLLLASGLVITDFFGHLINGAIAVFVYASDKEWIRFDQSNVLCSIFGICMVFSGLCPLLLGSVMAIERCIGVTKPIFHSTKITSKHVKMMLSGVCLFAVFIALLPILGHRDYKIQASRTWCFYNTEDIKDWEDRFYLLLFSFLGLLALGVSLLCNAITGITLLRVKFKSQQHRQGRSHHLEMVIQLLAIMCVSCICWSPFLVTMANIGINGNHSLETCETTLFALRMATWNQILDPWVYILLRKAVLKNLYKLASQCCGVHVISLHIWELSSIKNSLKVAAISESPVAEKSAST

[8] = Stability in human liver microsomes assessed as compound remaining after 60 mins; assay type: ADME; conditions: read-out: Stability
[9] = Inhibition of guinea pig recombinant mPGES-1; parameters: species or system Cavia porcellus
[10] = Inhibition of mPGES-1 in guinea pig whole blood assessed as inhibition of LPS-induced PGE2 production after overnight incubation; assay type: tissue-based; conditions: Cavia porcellus
[11] = Tmax in Sprague-Dawley rat at 10 mg/kg, po; assay type: ADME, organism-based; parameters: dose 10 mg/kg, route oral; conditions: in vivo

- inhibition [1]: 18.7%
- IC50 (Prostaglandin E synthase [2]): 376 nM
- remaining at 1 h [3]: 87%
- remaining at 1 h [4]: 77%
- IC50 (Prostaglandin E synthase [5]): 154 nM
- Cmax [6]: 72 ng/mL
- Activity [7]: 186%
- remaining at 1 h [8]: 91%
- IC50 [9]: 12 nM
- IC50 [10]: 161 nM
- Tmax [11]: 24 h
SMILES: CC(C)C(=O)NCc1ccc(Cl)c(-c2nc3cc(-c4ccc(C(F)(F)F)cc4)ncc3c(=O)[nH]2)c1
